Data on 40 molecules can be found in patent US7157453B2, “Urea substituted imidazoquinolines” (3M Innovation Properties Company, priority 1999, dated 2007).

Series [1] deals with tumor necrosis factor (α). Description: Cytokine Induction in Human Cells: tumor necrosis factor (α) by ELISA. In kind it is cell-based. The settings on record: PBMC; human PBMCs, incubated 18 to 24 hours, lowest concentration found to induce tumor necrosis factor. The source says: (§1) An in vitro human blood cell system was used to assess cytokine induction by compounds of the invention. Activity is based on the measurement of interferon and tumor necrosis factor (α) (IFN and TNF, respectively) secreted into culture media as described by Testerman et. al. In “Cytokine Induction by the Immunomodulators Imiquimod and S-27609”, Journal of Leukocyte Biology, 58, 365–372 (September, 1995).
(§2) Whole blood is collected by venipuncture into EDTA vacutainer tubes from healthy human donors. Peripheral blood mononuclear cells (PBMCs) are separated from whole blood by density gradient centrifugation using Histopaque®-1077 (Sigma Chemicals, St. Louis, Mo.). The PBMCs are suspended at 3–4×10^6 cells/mL in RPMI 1640 medium containing 10% fetal bovine serum, 2 mM L-glutamine and 1% penicillin/streptomycin solution (RPMI complete). The PBMC suspension is added to 48 well flat bottom sterile tissue culture plates (Costar, Cambridge, Mass. or Becton Dickinson Labware, Lincoln Park, N.J.) containing an equal volume of RPMI complete media containing test compound.
(§3) The compounds are solubilized in dimethyl sulfoxide (DMSO). The DMSO concentration should not exceed a final concentration of 1% for addition to the culture wells.
(§4) The solution of test compound is added at 60 μM to the first well containing RPMI complete and serial (three fold or ten fold) dilutions are made. The PBMC suspension is then added to the wells in an equal volume, bringing the test compound concentrations to the desired range. The final concentration of PBMC suspension is 1.5–2×10^6 cells/mL. The plates are covered with sterile plastic lids, mixed gently and then incubated for 18 to 24 hours at 37° C. in a 5% carbon dioxide atmosphere.
(§5) Following incubation the plates are centrifuged for 5–10 minutes at 1000 rpm (˜200×g) at 4° C. The cell culture supernatant is removed with a sterile polypropylene pipet and transferred to sterile polypropylene tubes. Samples are maintained at −30 to −70° C. until analysis. The samples are analyzed for interferon (α) and tumor necrosis factor (α) by ELISA
Tumor necrosis factor (α) (TNF) concentration is determined using ELISA kits available from Genzyme, Cambridge, Mass.; R&D Systems, Minneapolis, Minn.; or Pharmingen, San Diego, Calif.
(§6) The table below lists the lowest concentration found to induce interferon and the lowest concentration found to induce tumor necrosis factor for each compound.
For orientation: In an ELISA, binding on a coated surface is turned into a signal by an enzyme label.

The test system of a further series is interferon (α). Description: Cytokine Induction in Human Cells: interferon (α) by ELISA. Format: cell-based. The settings on record: PBMC; human PBMCs, incubated 18 to 24 hours, lowest concentration found to induce interferon.
Description: as §1, §2, §3, §4, §5
Interferon (α) concentration is determined by ELISA using a Human Multi-Species kit from PBL Biomedical Laboratories, New Brunswick, N.J.
as §6

For orientation: melting point means the temperature, or range, at which the solid turns liquid. By minimal effective concentration is commonly meant the lowest level tested that produced the effect sought. Low values mean an effect from little substance, high ones a need for much substance.

Structures can show the parent of a compound that is named as a salt.

Take `CCCNC(=S)NCCCCn1c(-c2ccccc2)nc2c(N)nc3ccccc3c21` [Example 13, N-[4-(4-Amino-2-phenyl-1H-imidazo[4,5-c]quinolin-1-yl)butyl]-N′-propylthiourea]: the melting point lay in the range of 113 to 116 °C.

Turning to `Cc1nc2c(N)nc3ccccc3c2n1CCCNC(=O)N1CCOCC1` [Example 167, N-[3-(4-amino-2-methyl-1H-imidazo[4,5-c]quinolin-1-yl)propyl]morpholine-4-carboxamide], the melting point was 226 to 228 °C. In the case of `Nc1nc2ccccc2c2c1ncn2CCCCNC(=O)Oc1ccc2ccccc2c1`, the melting point lay in the range of 154 to 155 °C. Same read-out and setting: the figure for `Nc1nc2ccccc2c2c1ncn2CCCCNC(=O)Oc1cccc2ccccc12` is 89 to 92 °C; for `Nc1nc2ccccc2c2c1nc(-c1ccccc1)n2CCCCNC(=S)Nc1cccnc1` [Example 14, N-[4-(4-Amino-2-phenyl-1H-imidazo[4,5-c]quinolin-1-yl)butyl]-N′-(3-pyridyl)thiourea] it is 118 to 120 °C; for `Nc1nc2ccccc2c2c1nc(-c1ccccc1)n2CCCCNC(=O)Nc1ccc(F)cc1` [Example 15, N-[4-(4-amino-2-phenyl-1H-imidazo[4,5-c]quinolin-1-yl)butyl]-N′-(4-fluorophenyl)urea] it is 145 to 150 °C.

As for `CC(C)(C)CC(C)(C)NC(=O)NCCCCn1cnc2c(N)nc3ccccc3c21` [Example 32], the minimal effective concentration (in series [1]; in the series on interferon (α)) was 10 µM in each case. As for `CCCCc1nc2c(N)nc3ccccc3c2n1CCCCNC(=O)N[C@@H]1C[C@H]1c1ccccc1` [Example 88], the figures for the minimal effective concentration (in series [1]; in the series on interferon (α)) were 1 µM and 0.1 µM, respectively. Turning to `COc1ccc(Cc2nc3c(N)nc4ccccc4c3n2CCCCNC(N)=O)cc1` [Example 10, N-{4-[4-Amino-2-(4-methoxybenzyl)-1H-imidazo[4,5-c]quinolin-1-yl]butyl}urea], the melting point is 196 °C (dec.). Consider `COCCc1nc2c(N)nc3ccccc3c2n1CCCCNC(=O)N[C@@H](C)c1ccccc1` [Example 111], for which the figures for the minimal effective concentration (in series [1]; in the series with interferon (α)) were 1 µM and 0.001 µM, respectively. The matching figures for `CCCCCNC(=O)NCCCCn1cnc2c(N)nc3ccccc3c21` [Example 30]: 30 µM and 3.33 µM.

Turning to `COCCc1nc2c(N)nc3ccccc3c2n1CCCCNC(=O)NC(=O)c1ccccc1` [Example 141, N^1-{4-[4-Amino-2-(2-methoxyethyl)-1H-imidazo[4,5-c]quinolin-1-yl]butyl}-N^3-benzoylurea Trifluoroacetate], the minimal effective concentration in series [1] was 10 µM; in the series with interferon (α), above 10 µM. The matching figures for `COCCc1nc2c(N)nc3ccccc3c2n1CC(C)(C)CNC(=O)Nc1ccccc1` [Example 169, N-{3-[4-amino-2-(2-methoxyethyl)-1H-imidazo[4,5-c]quinolin-1-yl]-2,2-dimethylpropyl}-N′-phenylurea]: 0.01 µM and 0.01 µM.

For the molecule `COCCc1nc2c(N)nc3c(c2n1CCCCNC(=O)N1CCOCC1)CCCC3` [Example 135], the values for the minimal effective concentration (in series [1]; in the series with interferon (α)) were 10 µM and 0.01 µM, respectively. The matching figures for `COCCc1nc2c(N)nc3ccccc3c2n1CCCCNC(=O)Nc1cccc([N+](=O)[O-])c1` [Example 114]: 0.01 µM and 0.0001 µM.

Turning to `COCCc1nc2c(N)nc3ccccc3c2n1CCCCNC(=O)Nc1c(Cl)cccc1Cl` [Example 118], the minimal effective concentration (in series [1]; in the series with interferon (α)) was 10 µM throughout.

`Cc1ccccc1NC(=O)NCCCCn1cnc2c(N)nc3ccccc3c21` [Example 48]: the values for the minimal effective concentration (in series [1]; in the series on interferon (α)) were 3.33 µM and 0.37 µM, respectively. For `COCCc1nc2c(N)nc3ccccc3c2n1CCCCNC(=O)N1CCOCC1` [Example 121] the same measures were 10 µM and 0.01 µM. As to `CSc1cccc(NC(=O)NCCCCn2cnc3c(N)nc4ccccc4c32)c1` [Example 49], the minimal effective concentration (in series [1]; in the series on interferon (α)) was 3.33 µM each time. As to `CCc1ccccc1NC(=O)NCCCCn1cnc2c(N)nc3ccccc3c21` [Example 40], the figures for the minimal effective concentration (in series [1]; in the series with interferon (α)) were 3.33 µM and 0.37 µM, respectively. For the molecule `CCCCc1nc2c(N)nc3ccccc3c2n1CCNC(=O)NS(=O)(=O)c1ccc(Cl)cc1` [Example 140], the minimal effective concentration was above 10 µM in series [1] and 10 µM with interferon (α). As to `COCCc1nc2c(N)nc3ccccc3c2n1CCCCNC(=O)Nc1ccccc1` [Example 104], the minimal effective concentration in series [1] was 1 µM; with interferon (α), 0.0001 µM. On to `Nc1nc2ccccc2c2c1ncn2CCCCNC(=O)NC1CCCCC1` [Example 39], for which the minimal effective concentration turned out to be 10 µM in series [1] and 1.11 µM in the series with interferon (α). For `CCCCc1nc2c(N)nc3c(c2n1CCCCNC(=O)NCc1ccccc1)CCCC3` [Example 133] the same measures were 10 µM and 0.1 µM. For `CCCCc1nc2c(N)nc3ccccc3c2n1CCCCNC(=O)N[C@@H](C)c1ccccc1` [Example 82] the same measures were 0.1 µM and 0.01 µM. For `COCCc1nc2c(N)nc3ccccc3c2n1CCCCNC(=S)Nc1cccnc1` [Example 125] the same measures were 10 µM and 0.0001 µM.

For the molecule `COCCc1nc2c(N)nc3ccccc3c2n1CCCCNC(=O)NC12CC3CC(CC(C3)C1)C2` [Example 100], the minimal effective concentration in series [1] was determined as 10 µM; in the series with interferon (α) it was 0.001 µM.

As to `CCCNC(=O)NCCn1c(COCC)nc2c(N)nc3ccccc3c21` [Example 67], the minimal effective concentration was 10 µM in series [1] and 1 µM in the series on interferon (α). The matching figures for `CCOc1ccccc1NC(=O)NCCCCn1cnc2c(N)nc3ccccc3c21` [Example 44]: 10 µM and 1.11 µM. The matching figures for `CCCNC(=S)NCCCCn1c(CCOC)nc2c(N)nc3ccccc3c21` [Example 127]: 1 µM and 0.0001 µM.

For `CCCCNC(=O)NCCCCn1cnc2c(N)nc3ccccc3c21` [Example 52], the figures for the minimal effective concentration (in series [1]; in the series with interferon (α)) were 10 µM and 1.11 µM, respectively. For `COCCc1nc2c(N)nc3ccccc3c2n1CCCCNC(=O)Nc1cccc(C#N)c1` [Example 108] the same measures were 0.0001 µM and 0.0001 µM. The matching figures for `COCCc1nc2c(N)nc3c(c2n1CCCCNC(=O)N(C)C)CCCC3` [Example 134]: 1 µM and 0.001 µM. For `COCCc1nc2c(N)nc3ccccc3c2n1CCCCNC(=O)Nc1ccc(C#N)cc1` [Example 109] the same measures were 0.1 µM and 0.0001 µM. Turning to `CCCCc1nc2c(N)nc3ccccc3c2n1CCNC(=O)NC12CC3CC(CC(C3)C1)C2` [Example 53], the minimal effective concentration is 10 µM in series [1] and above 10 µM with interferon (α). In the case of `CCCCc1nc2c(N)nc3ccccc3c2n1CCCCNC(=O)N[C@H](C)c1ccccc1` [Example 81], the minimal effective concentration in series [1] is 1 µM; in the series with interferon (α) it was 0.01 µM. Turning to `CCCCc1nc2c(N)nc3c(c2n1CCCCNC(=O)NS(=O)(=O)c1ccccc1)CCCC3` [Example 137], the minimal effective concentration turned out to be 10 µM in series [1] and 1 µM in the series on interferon (α). As to `COCCc1nc2c(N)nc3ccccc3c2n1CCCCNC(=O)Nc1ccccc1Br` [Example 119], the minimal effective concentration (in series [1]; with interferon (α)) was 10 µM throughout. Turning to `CCCCCCCCNC(=O)NCCCCn1c(CCCC)nc2c(N)nc3ccccc3c21` [Example 87], the figures for the minimal effective concentration (in series [1]; in the series on interferon (α)) were above 10 µM and 1 µM, respectively. The matching figures for `CC(C)c1cccc(C(C)C)c1NC(=O)NCCCCn1cnc2c(N)nc3ccccc3c21` [Example 24]: above 30 µM and above 30 µM.
